≈ marks a conversion by molar mass, not a printed value.
Legend:
50S ribosome = assay: SPR interaction and affinity analysis; format: binding, S. aureus ATCC 43300; settings: 4 °C; for Avg ka / Avg kd: 1:1 Langmuir binding; for Kd: KD = Kd/Ka
Experimental: S. aureus ATCC 43300 was used to prepare the 50S ribosomal subunit the same way as described previously. Cells were grown overnight in Brain Heart Infusion broth at 37 °C and harvested for 1.5 h at an OD600. Cells were washed with 10 mM Tris-HCl twice at pH = 7.5, and resuspended in 5 mL buffer A (20 mM HEPES-HCl pH = 7.5, 21 mM Mg(OAc)2, 100 mM NH4Cl, 1 mM DTT, 1 mM EDTA). Cells were broken by an ultrasound crusher. The lysate was centrifuged for 90 min at 20,000× g to clear cell debris.
The solution was layered on a sucrose cushion of 15 mL (10 mM Hepes-KOH pH 7.5, 25 mM Mg(OAc)2, 500 mM KCl, […], 1 mM DTT, 0.5 mM EDTA). Centrifugation was carried out for 15 h at 45,000 rpm using an ultracentrifuge Beckman (Beckman Coulter, Shanghai, China), Type 70Ti rotor. The crude ribosome pellet was resuspended in buffer E (10 mM Hepes-KOH pH 7.5, 10 mM Mg(OAc)2, 100 mM KCl, 1 mM DTT, 0.5 mM EDTA), then layered on 9 mL of 7–30% sucrose gradient and centrifuged in an ultracentrifuge Beckman, type SW40Ti rotor at 17,100 rpm for 15 h. The gradient was analyzed on the AKTA explorer system (Amersham, UK). The fractions corresponding to the 50S ribosomal subunit were collected and further subjected to precipitation by PEG 20,000. The 50S ribosomal subunit pellet was gently dissolved in 200 µL of storage buffer (10 mM HEPES-HCl pH = 7.5, 10 mM Mg(OAc)2, 15 mM KCl, 60 mM NH4Cl, 1 mM DTT) and stored at −80 °C.
SPR affinity analysis was performed on the bScreen LB 991 Label-free Microarray System (Berthold Technologies, Black Forest, Germany) at 4 °C and Biodot AD-1520 Array Printer (BIODOT Inc., Irvine, CA, USA) with a Photo-cross-linker SensorCHIP™. Concentrations of each compound were diluted to 100 μM with DMSO as the printing working solution for immobilization. A Biodot AD-1520 Array Printer (BIODOT Inc., CA, USA) was used to control the photo-cross-linker sensor chip and print samples. Each sample was printed four times. In order to check the chip quality and check whether the detection system works, DMSO was used as a system-negative control and rapamycin as a positive control. All positive control dots were divided into four groups and printed on the four corners of the sensor chip. The sensor chip was dried in vacuum after the array print and quickly transferred to a spectra radiator for a photo cross-linking reaction. The sensor chip was washed with C2H5OH, DMF and H2O in turn and evaporated in a N2 atmosphere for 15 min. Then, the Flowcell Cover were assembled.
The 50S ribosome was diluted separately to 200 nM, 400 nM, 800 nM, 1600 nM and 3200 nM with PBST (pH = 7.4, 0.1% Tween 20). Different concentrations of ribosome solutions were injected at a flow rate of 0.5 μL⋅s^−1 for 600 s at the associating stage at 4 °C, followed by PBST at a flow rate of 0.5⋅μL·s^−1 for 360 s at each dissociating stage. Then, the surface was regenerated with Glycine-HCl (pH = 2.0) at a flow rate of 2⋅μL·s^−1 for 300 s.
The raw data of the binding process of compounds and the 50S ribosome were recorded in real time. We compared the response unit (RU) of surface resonance to determine the different binding affinity between each sample dot. The process and analysis of association rate constants (Ka) and dissociation rate constants (Kd) and the equilibrium dissociation constant (KD, Kd/Ka) were performed using the data analysis software of the bScreen LB 991 Label-free Microarray System according to a single-site binding model (1:1 Langmuir binding) with mass transfer limitations for binding kinetics determination.

S. aureus (ATCC 29213) = assay: MIC and MBC, broth dilution, S. aureus ATCC 29213; format: cell-based; settings: Staphylococcus aureus, ATCC29213
Experimental: (§1) The synthesized pleuromutilin derivatives 8–30 were tested against four Gram-positive bacteria (MRSA ATCC 43300, S. aureus ATCC 29213 and two clinical strains of S. aureus (AD3 and 144) isolated from Guangdong Province). Tiamulin was used as the positive control in this experiment.
(§2) MIC values were tested following our previous work. The derivatives were dissolved in an aqueous solution of 2.5% tween-80 and 2.5% DMSO to make a solution with a concentration of 1000 µg/mL. The solution was diluted 12 times with MH broth to give a concentration range of 32–0.01 µg/mL. The bacteria (5 × 10^5 CFU/mL) were added in each well. For each compound concentration, three parallel experiments were set. The 96-well plate was incubated for 22–26 h at 37 °C. The MIC value was recorded as the minimal concentration that inhibits the visible growth of tested bacteria completely.
(§3) The MBC of these pleuromutilin derivatives were tested according to a previously reference. […] Then, the values of MBC were determined by laying 100 μL aliquots from the wells onto the MH agar plates without visible growth. The MH agar plate was cultured for a further 22–26 h at 37 °C.

[1] = system: methicillin-resistant S. aureus (ATCC 43300); assay: MIC and MBC, broth dilution, MRSA ATCC 43300; format: cell-based; settings: Staphylococcus aureus
Experimental: as §1, §2, §3

S. aureus (144) = assay: MIC and MBC, broth dilution, S. aureus 144; format: cell-based; settings: Staphylococcus aureus; S. aureus 144 (clinical strain)
Experimental: as §1, §2, §3

S. aureus (AD3) = assay: MIC and MBC, broth dilution, S. aureus AD3; format: cell-based; settings: Staphylococcus aureus; S. aureus AD3 (clinical strain)
Experimental: as §1, §2, §3

Compound | Avg ka (50S ribosome) [M⁻¹ s⁻¹] | Avg kd (50S ribosome) [s⁻¹] | melting point [°C] | Kd (50S ribosome) [µM] | MBC (S. aureus (ATCC 29213)) [µg/mL] | MIC (S. aureus (ATCC 29213)) [µg/mL] | MBC [1] [µg/mL] | MIC [1] [µg/mL] | MBC (S. aureus (144)) [µg/mL] | MIC (S. aureus (144)) [µg/mL] | MBC (S. aureus (AD3)) [µg/mL] | MIC (S. aureus (AD3)) [µg/mL]
penicillin [reference compound] | 2.10 | 0.515 |  |  |  |  |  |  |  |  |  | 
C=C[C@]1(C)C[C@@H](OC(=O)CNc2cccc(Br)c2)[C@]2(C)[C@H](C)CC[C@]3(CCC(=O)[C@H]32)[C@@H](C)[C@@H]1O [Compound 12, 22-(3-Bromoanilineyl)-22-deoxypleuromutilin] |  | 6.25e-05 | 161 to 163 | 1.53 | 0.5 (≈ 0.939 µM) | 0.25 (≈ 0.469 µM) | 0.25 (≈ 0.469 µM) | 0.12 (≈ 0.225 µM) | 2 (≈ 3.76 µM) | 1 (≈ 1.88 µM) | 1 (≈ 1.88 µM) | 0.25 (≈ 0.469 µM)
C=C[C@]1(C)C[C@@H](OC(=O)CNc2ccc(Br)cc2)[C@]2(C)[C@H](C)CC[C@]3(CCC(=O)[C@H]32)[C@@H](C)[C@@H]1O [Compound 13, 22-(4-Bromoanilineyl)-22-deoxypleuromutilin] |  | 0.197 | 97 to 98 | 6350 | 0.25 (≈ 0.469 µM) | 0.25 (≈ 0.469 µM) | 0.12 (≈ 0.225 µM) | 0.12 (≈ 0.225 µM) | 1 (≈ 1.88 µM) | 0.5 (≈ 0.939 µM) | 1 (≈ 1.88 µM) | 0.25 (≈ 0.469 µM)
C=C[C@]1(C)C[C@@H](OC(=O)CNCCSC)[C@]2(C)[C@H](C)CC[C@]3(CCC(=O)[C@H]32)[C@@H](C)[C@@H]1O [Compound 26, 22-(2-(Methylthio)ethylamineyl)-22-deoxypleuromutilin] | 1.26 | 0.779 | 153 to 155 |  | 2 (≈ 4.43 µM) | 2 (≈ 4.43 µM) | 1 (≈ 2.21 µM) | 1 (≈ 2.21 µM) | 4 (≈ 8.86 µM) | 2 (≈ 4.43 µM) | 4 (≈ 8.86 µM) | 1 (≈ 2.21 µM)
C=C[C@]1(C)C[C@@H](OC(=O)CNc2cccc(F)c2)[C@]2(C)[C@H](C)CC[C@]3(CCC(=O)[C@H]32)[C@@H](C)[C@@H]1O [Compound 8] |  |  |  |  | 0.25 (≈ 0.53 µM) | 0.12 (≈ 0.254 µM) | 0.12 (≈ 0.254 µM) | 0.03 (≈ 0.0636 µM) | 0.5 (≈ 1.06 µM) | 0.25 (≈ 0.53 µM) | 0.5 (≈ 1.06 µM) | 0.12 (≈ 0.254 µM)
C=C[C@]1(C)C[C@@H](OC(=O)CN2CCOCC2)[C@]2(C)[C@H](C)CC[C@]3(CCC(=O)[C@H]32)[C@@H](C)[C@@H]1O [Compound 29, 22-Morpholine-22-deoxypleuromutilin] | 1.57 | 0.872 | 157 to 159 |  | 2 (≈ 4.47 µM) | 2 (≈ 4.47 µM) | 1 (≈ 2.23 µM) | 1 (≈ 2.23 µM) | 4 (≈ 8.94 µM) | 2 (≈ 4.47 µM) | 8 (≈ 17.9 µM) | 2 (≈ 4.47 µM)
C=C[C@]1(C)C[C@@H](OC(=O)CNCCCCCCCCCCCCCCCC)[C@]2(C)[C@H](C)CC[C@]3(CCC(=O)[C@H]32)[C@@H](C)[C@@H]1O [Compound 24, 22-Hexadecylamineyl-22-deoxypleuromutilin] |  | 0.0375 | 76 to 79 | 993 | > 32 | 32 (≈ 53.2 µM) | > 32 | 32 (≈ 53.2 µM) | > 32 | 32 (≈ 53.2 µM) | > 32 | > 32
C=C[C@]1(C)C[C@@H](OC(=O)CNCc2ccccc2F)[C@]2(C)[C@H](C)CC[C@]3(CCC(=O)[C@H]32)[C@@H](C)[C@@H]1O [Compound 14, 22-(2-Fluorobenzylamineyl)-22-deoxypleuromutilin] | 153 | 0.065 | 163 to 164 | 424 | 8 (≈ 16.5 µM) | 4 (≈ 8.24 µM) | 2 (≈ 4.12 µM) | 1 (≈ 2.06 µM) | 8 (≈ 16.5 µM) | 4 (≈ 8.24 µM) | 8 (≈ 16.5 µM) | 2 (≈ 4.12 µM)
C=C[C@]1(C)C[C@@H](OC(=O)CNCCCCCCCCCCCC)[C@]2(C)[C@H](C)CC[C@]3(CCC(=O)[C@H]32)[C@@H](C)[C@@H]1O [Compound 23, 22-Dodecylamineyl-22-deoxypleuromutilin] | 24100 | 0.0011 | 75 to 77 | 0.0456 | > 32 | 32 (≈ 58.6 µM) | 32 (≈ 58.6 µM) | 32 (≈ 58.6 µM) | > 32 | 32 (≈ 58.6 µM) | > 32 | 32 (≈ 58.6 µM)
C=C[C@]1(C)C[C@@H](OC(=O)CNCCS(C)(=O)=O)[C@]2(C)[C@H](C)CC[C@]3(CCC(=O)[C@H]32)[C@@H](C)[C@@H]1O [Compound 25, 22-(2-(Methylsulfonyl)ethylamineyl)-22-deoxypleuromutilin] | 2.70 | 0.00833 | 183 to 186 | 3080 | 2 (≈ 4.14 µM) | 2 (≈ 4.14 µM) | 2 (≈ 4.14 µM) | 1 (≈ 2.07 µM) | 8 (≈ 16.5 µM) | 4 (≈ 8.27 µM) | 4 (≈ 8.27 µM) | 2 (≈ 4.14 µM)
C=C[C@]1(C)C[C@@H](OC(=O)CNCCO)[C@]2(C)[C@H](C)CC[C@]3(CCC(=O)[C@H]32)[C@@H](C)[C@@H]1O [Compound 28, 22-Ethanolamine-22-deoxypleuromutilin] | 2730 | 0.0272 | 91 to 94 | 9.96 | 8 (≈ 19 µM) | 2 (≈ 4.74 µM) | 2 (≈ 4.74 µM) | 1 (≈ 2.37 µM) | 4 (≈ 9.49 µM) | 4 (≈ 9.49 µM) | 8 (≈ 19 µM) | 2 (≈ 4.74 µM)
C=C[C@]1(C)C[C@@H](OC(=O)CNCCCCCCCC)[C@]2(C)[C@H](C)CC[C@]3(CCC(=O)[C@H]32)[C@@H](C)[C@@H]1O [Compound 22, 22-Octylamineyl-22-deoxypleuromutilin] | 114 | 0.00073 | 76 to 77 | 6.41 | > 32 | 16 (≈ 32.7 µM) | 32 (≈ 65.3 µM) | 16 (≈ 32.7 µM) | > 32 | 32 (≈ 65.3 µM) | > 32 | 32 (≈ 65.3 µM)
